This assay addresses T1, KCa3.1 (Homo sapiens, UniProt O15554).
T1 construct: gene KCNN4
Nature of the assay: whole-cell perforated patch clamp, block of DC-EBIO/ionomycin-activated current. The class given is cell-based.

Molecules are shown by their SMILES.

From publication PMC9768205, “Pharmacological targeting of the mitochondrial calcium-dependent potassium channel KCa3.1 triggers cell death and reduces tumor growth and metastasis in vivo” (Cell Death & Disease, 2022) come the findings set out here.

T1 sequence (O15554 whole entry): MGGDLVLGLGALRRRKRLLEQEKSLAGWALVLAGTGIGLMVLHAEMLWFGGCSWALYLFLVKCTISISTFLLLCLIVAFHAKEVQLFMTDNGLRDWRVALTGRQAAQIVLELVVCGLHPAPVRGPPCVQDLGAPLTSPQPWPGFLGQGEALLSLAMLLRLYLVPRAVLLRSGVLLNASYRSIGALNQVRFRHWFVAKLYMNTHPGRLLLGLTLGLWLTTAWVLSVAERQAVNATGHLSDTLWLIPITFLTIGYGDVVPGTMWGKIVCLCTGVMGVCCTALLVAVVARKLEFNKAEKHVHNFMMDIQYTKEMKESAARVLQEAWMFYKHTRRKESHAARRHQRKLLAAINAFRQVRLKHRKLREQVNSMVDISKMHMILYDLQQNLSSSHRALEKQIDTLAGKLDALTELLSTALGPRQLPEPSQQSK

As usually defined, the IC50 is the concentration needed to halve the response being measured. A higher IC50 goes with lower potency. The molecule `Clc1ccccc1C(c1ccccc1)(c1ccc(CCC[P+](c2ccccc2)(c2ccccc2)c2ccccc2)cc1)n1cccn1` (stereo not shown) [mitoTRAM-34, (3-(4-((2-chlorophenyl)(phenyl)(1H-pyrazol-1yl)methyl)phenyl)propyl)triphenylphosphonium iodide] showed an IC50 of about 2000 nM.
